Read-outs that look alike come from different tables or passages of the source.
Experiments:
[1] = biological target: GST-tagged K-Ras mutant / His-tagged hSOS1 (Homo sapiens, UniProt P01116); experiment: HTRF assay, K-Ras mutant / SOS1 interaction; type: binding; conditions: read-out: IC50 against mutant Kras
Outline: (§1)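 Buffer ~5 mM HEPES pH 7.4, ~150 mM NaCl, ~1 mM DTT, 0.05% BSA, 0.0025% Igepal. Cpd in DMSO + Ras/donor mix + SOS1/acceptor mix; ≥10 min; HTRF 665/620 ratio → IC50.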

[2] = biological target: T1, wildtype Kras / hSOS1 (Homo sapiens, UniProt P01116); experiment: HTRF assay, wildtype Kras / SOS1 interaction; type: binding; conditions: read-out: IC50 against wildtype Kras
T1 construct: made in house; host or cells: E. coli BL21 (DE3)
T1 sequence (P01116 1-188 isoform P01116-2): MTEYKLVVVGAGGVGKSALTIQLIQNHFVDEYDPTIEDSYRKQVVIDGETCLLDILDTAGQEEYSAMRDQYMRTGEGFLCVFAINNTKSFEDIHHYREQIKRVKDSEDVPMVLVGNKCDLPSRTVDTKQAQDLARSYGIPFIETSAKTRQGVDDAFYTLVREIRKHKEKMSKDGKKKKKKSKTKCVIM
Outline: as §1

[3] = compound nos. 102-196, general methodology of example 5

GST-tagged K-Ras mutant / His-tagged hSOS1, sequence (P01116 whole entry G12D, form open): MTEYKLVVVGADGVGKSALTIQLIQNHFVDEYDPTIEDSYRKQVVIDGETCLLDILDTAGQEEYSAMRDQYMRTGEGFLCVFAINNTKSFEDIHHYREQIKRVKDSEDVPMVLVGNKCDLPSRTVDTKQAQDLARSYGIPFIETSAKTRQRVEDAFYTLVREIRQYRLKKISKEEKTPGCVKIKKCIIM

Compound | IC50 ([1]; compound nos. 401-703) [nM] | IC50 ([2]; compound nos. 401-703) [nM] | IC50 [1, 3] [nM] | IC50 [2, 3] [nM]
CN1CCC[C@H]1COc1nc(N2CCNCC(F)(F)C2)c2cc(Cl)c(-c3cccc4ccc(N)nc34)c(F)c2n1 [Compound 183, 8-(6-chloro-4-(6,6-difluoro-1,4-diazepan-1-yl)-8-fluoro-2-(((S)-1-methylpyrrolidin-2-yl)methoxy)quinazolin-7-yl)quinolin-2-amine] |  |  | > 500 | > 500
CO[C@@H]1CN(C)C[C@H]1Oc1nc(N2CC3CCC(C2)N3)c2cc(CCC#N)c(-c3ccc(F)c4sc(N)nc34)c(F)c2n1 [Compound 424, 3-(7-(2-amino-7-fluoro-benzo[d]thiazol-4-yl)-4-(3,8-diazabicyclo[3.2.1]octan-3-yl)-8-fluoro-2-(((3R,4R)-4-methoxy-1-methylpyrrolidin-3-yl)oxy)quinazolin-6-yl)-propanenitrile] | > 500 | < 500 |  | 
CN1CCC[C@H]1COc1nc(N2CCCOCC2)c2cc(Cl)c(-c3ccc(F)c4sc(N)nc34)c(F)c2n1 [Compound 147, 4-(6-chloro-8-fluoro-2-(((S)-1-methylpyrrolidin-2-yl)-methoxy)-4-(1,4-oxazepan-4-yl)quinazolin-7-yl)-7-fluorobenzo[d]thiazol-2-amine] |  |  | < 500 | < 500
CO[C@H]1C[C@@H](COc2nc(N3CCNCC(F)(F)C3)c3cc(Cl)c(-c4cccc5sc(N)nc45)c(F)c3n2)N(C)C1 [Compound 126, 4-(6-chloro-4-(6,6-difluoro-1,4-diazepan-1-yl)-8-fluoro-2-(((2S,4S)-4-methoxy-1-methylpyrrolidin-2-yl)-methoxy)quinazolin-7-yl)-benzo[d]thiazol-2-amine] |  |  | > 500 | < 500
CN1CCC[C@H]1COc1nc(N2CCNCC(F)(F)C2)c2cc(Cl)c(-c3cccc4sc(NCC(F)(F)F)nc34)c(F)c2n1 [Compound 149, 4-(6-chloro-4-(6,6-difluoro-1,4-diazepan-1-yl)-8-fluoro-2-(((S)-1-methylpyrrolidin-2-yl)methoxy)quinazolin-7-yl)-N-(2,2,2-trifluoroethyl)-benzo[d]thiazol-2-amine] |  |  | > 500 | > 500
Nc1nc2c(-c3c(Cl)cc4c(N5CCCOCC5)nc(OC[C@@]56CCCN5C[C@H](F)C6)nc4c3F)cccc2o1 [Compound 167] |  |  | < 500 | < 500
CN1CCC[C@H]1COc1nc(N2CCNCC(F)(F)C2)c2cc(Cl)c(-c3cccc4oc(C#N)nc34)c(F)c2n1 [Compound 185, 4-(6-chloro-4-(6,6-difluoro-1,4-diazepan-1-yl)-8-fluoro-2-(((S)-1-methylpyrrolidin-2-yl)methoxy)quinazolin-7-yl)benzo[d]oxazole-2-carbonitrile] |  |  | > 500 | > 500
CN1C[C@@H](F)C[C@H]1COc1nc(N2CCNCC(F)(F)C2)c2cc(Cl)c(-c3cccc4sc(N)nc34)c(F)c2n1 [Compound 130, 4-(6-chloro-4-(6,6-difluoro-1,4-diazepan-1-yl)-8-fluoro-2-(((2S,4S)-4-fluoro-1-methylpyrrolidin-2-yl)meth-oxy)quinazolin-7-yl)benzo-[d]thiazol-2-amine] |  |  | > 500 | < 500
CN1CCC[C@H]1COc1nc(N2CCCCC(F)C2)c2cc(Cl)c(-c3cccc4sc(N)nc34)c(F)c2n1 (stereo partly drawn) [Compound 181, 4-(6-chloro-8-fluoro-4-(3-fluoroazepan-1-yl)-2-(((S)-1-methylpyrrolidin-2-yl)-methoxy)quinazolin-7-yl)-benzo[d]thiazol-2-amine] |  |  | < 500 | < 500
CN1CCC[C@H]1COc1nc(N2CCNC(=O)CC2)c2cc(Cl)c(-c3cccc4sc(N)nc34)c(F)c2n1 [Compound 142, 1-(7-(2-aminobenzo[d]-thiazol-4-yl)-6-chloro-8-fluoro-2-(((S)-1-methyl-pyrrolidin-2-yl)methoxy)-quinazolin-4-yl)-1,4-diazepan-5-one] |  |  | < 500 | < 500
Nc1nc2c(-c3c(Cl)cc4c(N5CCCCC(F)(F)C5)nc(OCC56CCCN5CCC6)nc4c3F)cccc2s1 [Compound 116, 4-(6-chloro-4-(3,3-difluoro-azepan-1-yl)-8-fluoro-2-((tetrahydro-1H-pyrrolizin-7a(5H)-yl)methoxy)quin-azolin-7-yl)benzo[d]thiazol-2-amine] |  |  | < 500 | < 500

The next lines start with the values.

IC50 ([1]; compound nos. 401-703) [nM] | IC50 ([2]; compound nos. 401-703) [nM] | IC50 [1, 3] [nM] | IC50 [2, 3] [nM] | Compound
> 500 | > 500 |  |  | Nc1nccc2c(-c3c(Cl)cc4c(N5CC6CCC(C5)N6)nc(OCC56CCCN5CCC6)nc4c3F)cccc12 [Compound 541, 5-(4-(3,8-diazabicyclo-[3.2.1]octan-3-yl)-6-chloro-8-fluoro-2-((tetrahydro-1H-pyrrolizin-7a(5H)-yl)meth-oxy)quinazolin-7-yl)iso-quinolin-1-amine]
> 500 | > 500 |  |  | CN1CCCC1CCNc1nc(N2CC3CCC(C2)N3)c2ccc(-c3ccc(F)c4sc(N)nc34)nc2n1 (stereo not drawn) [Compound 697, 4-(4-(3,8-diazabicyclo-[3.2.1]octan-3-yl)-2-((2-(1-methylpyrrolidin-2-yl)-ethyl)amino)pyrido[2,3-d]-pyrimidin-7-yl)-7-fluoro-benzo[d]thiazol-2-amine]
> 500 | > 500 |  |  | Nc1nc2c(-c3ccc4c(N5CC6CCC(C5)N6)nc(OC[C@@]56CCCN5C[C@H](F)C6)nc4c3F)ccc(F)c2s1 [Compound 612, 4-(4-(3,8-diazabicyclo-[3.2.1]octan-3-yl)-8-fluoro-2-(((2R,7aS)-2-fluorotetra-hydro-1H-pyrrolizin-7a(5H)-yl)methoxy)quinazolin-7-yl)-7-fluorobenzo[d]thiazol-2-amine]
> 500 | > 500 |  |  | Oc1cc(-c2cnc3c(N4CC5CCC(C4)N5)nc(OC[C@@]45CCCN4C[C@H](F)C5)nc3c2)c2ccccc2c1 (single isomer, unassigned) [Compound 610]
> 500 | > 500 |  |  | Fc1c(N2CCCCc3ccccc32)ccc2c(N3CCCCCC3)nc(OCC34CCCN3CCC4)nc12 [Compound 548, 1-(4-(azepan-1-yl)-8-fluoro-2-((tetrahydro-1H-pyrrol-izin-7a(5H)-yl)methoxy)-quinazolin-7-yl)-2,3,4,5-tetrahydro-1H-benzo[b]-azepine]
< 500 | > 500 |  |  | Cc1ccc2[nH]nc(C#N)c2c1-c1c(Cl)cc2c(N3CC4CCC(C3)N4)nc(OC[C@@]34CCCN3C[C@H](F)C4)nc2c1F [Compound 632, 4-(4-(3,8-diazabicyclo-[3.2.1]octan-3-yl)-6-chloro-8-fluoro-2-(((2R,7aS)-2-fluorotetrahydro-1H-pyrrol-izin-7a(5H)-yl)methoxy)-quin-azolin-7-yl)-5-methyl-1H-indazole-3-carbonitrile]
> 500 | < 500 |  |  | Nc1cc(-c2ccc3c(N4CC5CCC(C4)N5)nc(OCC45CCCN4CCC5)nc3c2F)c2c(Cl)cccc2n1 [Compound 498, 4-(4-(3,8-diazabicyclo-[3.2.1]octan-3-yl)-8-fluoro-2-((tetrahydro-1H-pyrrol-izin-7a(5H)-yl)methoxy)-quinazolin-7-yl)-5-chloro-quinolin-2-amine]
> 500 | > 500 |  |  | Nc1cccc(-c2ccc(O)cc2-c2c(Cl)cc3c(N4CC5CCC(C4)N5)nc(OCC45CCCN4CCC5)nc3c2F)c1 [Compound 652, 2-(4-(3,8-diazabicyclo-[3.2.1]octan-3-yl)-6-chloro-8-fluoro-2-((tetrahydro-1H-pyrrolizin-7a(5H)-yl)meth-oxy)quinazolin-7-yl)-3′-amino-[1,1′-biphenyl]-4-ol]
> 500 | > 500 |  |  | Oc1cc(-c2c(Cl)cc3c(N4CC5CCC(C4)N5)nc(OCC45CCCN4CCC5)nc3c2F)cc(C(F)(F)F)c1 [Compound 614, 3-(4-(3,8-diazabicyclo-[3.2.1]octan-3-yl)-6-chloro-8-fluoro-2-((tetrahydro-1H-pyrrolizin-7a(5H)-yl)meth-oxy)quinazolin-7-yl)-5-(trifluoromethyl)phenol]
> 500 | > 500 |  |  | Fc1c(-c2ccc(F)c3[nH]nc(I)c23)c(Cl)cc2c(N3CC4CCC(C3)N4)nc(OC[C@@]34CCCN3C[C@H](F)C4)nc12 [Compound 671, 4-(3,8-diazabicyclo[3.2.1]-octan-3-yl)-6-chloro-8-fluoro-7-(7-fluoro-3-iodo-1H-indazol-4-yl)-2-(((2R,7aS)-2-fluorotetra-hydro-1H-pyrrolizin-7a(5H)-yl)methoxy)quinazoline]
< 500 | < 500 |  |  | Nc1nc2c(-c3c(Cl)cc4c(N5CCCN(S(=O)(=O)C6CC6)CC5)nc(OC[C@@]56CCCN5C[C@H](F)C6)nc4c3F)ccc(F)c2s1 [Compound 435, 4-(6-chloro-4-(4-(cyclo-propylsulfonyl)-1,4-diazepan-1-yl)-8-fluoro-2-(((2R,7aS)-2-fluorotetra-hydro-1H-pyrrolizin-7a(5H)-yl)methoxy)quinazolin-7-yl)-7-fluorobenzo[d]thiazol-2-amine]
> 500 | < 500 |  |  | Nc1cccc(-c2c(Cl)cc3c(N4CCCCCC4)nc(OCC45CCCN4CCC5)nc3c2F)c1F [Compound 430, 3-(4-(azepan-1-yl)-6-chloro-8-fluoro-2-((tetrahydro-1H-pyrrolizin-7a(5H)-yl)meth-oxy)quinazolin-7-yl)-2-fluoroaniline]
> 500 | < 500 |  |  | Fc1c(N2CCCc3cccc(Cl)c32)cc(Cl)c2c(N3CCCCCC3)nc(OCC34CCCN3CCC4)nc12 [Compound 467, 4-(azepan-1-yl)-5-chloro-7-(8-chloro-3,4-dihydroquin-olin-1(2H)-yl)-8-fluoro-2-((tetrahydro-1H-pyrrolizin-7a(5H)-yl)methoxy)quin-azoline]

Source: patent US20240254129A1, “HETEROCYCLIC COMPOUNDS AND USES THEREOF” (Kumquat Biosciences Inc., priority 2021, published 2024)
